Measured values from paper PMC6204821, “Inhibitory effect of microalgae and cyanobacteria extracts on influenza virus replication and neuraminidase activity” (PeerJ, 2018).

How the values were obtained:
[1] = tested on: A(H1N1)pdm09-WT (A/California/04/2009); assay: microbe, parasite or virus in culture; assay type: cell-based; conditions: Influenza A virus, H1N1, MDCK, read-out: EC50 A(H1N1)pdm09-WT
[2] = tested on: A(H3N2)-WT (A/Switzerland/9715293/2013); assay: microbe, parasite or virus in culture; assay type: cell-based; conditions: Influenza A virus, H3N2, MDCK, read-out: EC50 A(H3N2)-WT
[3] = in vitro; conditions: dog
Procedure: One hundred microliters of 2.0 × 10^4 MDCK cells were seeded into the 96-well culture plates (flat bottom) and grown for 24 h at 37 °C in a 5% CO2 atmosphere, then, the extracts were added with a final concentration of 1 mg/mL in DMEM. […] The extracts were diluted in culture medium DMEM, the DMSO final concentration was equal to 1.0% (v/v). After 48 h of cells incubation with extracts or vehicle (DMSO), a freshly prepared XTT (Sigma) solution was added, as specified by the manufacturer’s instructions. […] The cell viability was calculated by the comparison between absorbance (A475 nm–A660 nm) from treated (A) and untreated (B) cells using the formula: A/B × 100. Tests were carried out performing three replicates (n = 3).

[4] = biological target: neuraminidase of B/Perth/211/2001 Yam (WT) (Influenza B virus, UniProt Q3S340); assay: biochemical; conditions: read-out: NA Activity (%)
Chain of neuraminidase of B/Perth/211/2001 Yam (WT) (Q3S340 1-466): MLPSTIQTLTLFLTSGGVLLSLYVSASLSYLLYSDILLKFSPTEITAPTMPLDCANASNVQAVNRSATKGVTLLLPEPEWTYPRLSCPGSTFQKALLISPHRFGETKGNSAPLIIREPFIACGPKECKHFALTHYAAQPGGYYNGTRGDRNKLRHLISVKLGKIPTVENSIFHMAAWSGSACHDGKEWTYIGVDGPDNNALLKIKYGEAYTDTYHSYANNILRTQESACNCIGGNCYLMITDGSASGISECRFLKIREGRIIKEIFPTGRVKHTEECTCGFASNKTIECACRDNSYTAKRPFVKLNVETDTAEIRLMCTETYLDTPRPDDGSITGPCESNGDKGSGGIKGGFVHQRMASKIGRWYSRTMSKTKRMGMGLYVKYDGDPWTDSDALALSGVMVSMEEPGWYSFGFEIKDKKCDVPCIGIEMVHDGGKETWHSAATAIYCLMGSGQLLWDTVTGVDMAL

Row | Structure (SMILES) | EC50 [1] [µM] | EC50 [2] [µM] | CC50 at 48 h [3] [µM] | activity at 10 pM [4] [%] | activity at 0.0001 µM [4] [%] | activity at 0.001 µM [4] [%] | activity at 0.01 µM [4] [%] | activity at 0.1 µM [4] [%] | activity at 1 µM [4] [%]
1 | CCC(CC)O[C@@H]1C=C(C(=O)O)C[C@H](N)[C@H]1NC(C)=O [OST-car, Oseltamivir carboxylate] | 0.012 | 0.032 | 2130 | – | – | – | – | – | –
2 | CCOC(=O)C1=C[C@@H](OC(CC)CC)[C@H](NC(C)=O)[C@@H](N)C1 [Oseltamivir] | – | – | – | 104 | 118 | 92 | 32 | 11 | 11
